Assay results from the supplement of paper PMC10307832.

Assays:
Experiment in all cases: relative viability (nuclei count vs DMSO), 5 days (fraction); higher = more cells survive
Vorinostat + Navitoclax = compound: O=C(CCCCCCC(=O)Nc1ccccc1)NO [Vorinostat] + CC1(C)CCC(c2ccc(Cl)cc2)=C(CN2CCN(c3ccc(C(=O)NS(=O)(=O)c4ccc(N[C@H](CCN5CCOCC5)CSc5ccccc5)c(S(=O)(=O)C(F)(F)F)c4)cc3)CC2)C1 [Navitoclax] (partner 0.5 µM)
Procedure, shortened: (§1)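 One day after seeding in 1536-well plates, lung cancer cell lines were dosed by pin tool. Dosing was either single-drug or a fixed anchor-drug dose plus five library-drug doses (not always all listed) in √10 steps. After 5 days, nuclei were stained in one fix-and-stain step and counted on 4× images, and relative viability is the nuclei count of treated wells over that of vehicle wells, given as the median of duplicate plates.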

Vorinostat + Tozasertib = compound: O=C(CCCCCCC(=O)Nc1ccccc1)NO [Vorinostat] + Cc1cc(Nc2cc(N3CCN(C)CC3)nc(Sc3ccc(NC(=O)C4CC4)cc3)n2)n[nH]1 [Tozasertib] (partner 0.1 µM)
Procedure, shortened: as §1

Vorinostat + AZD7762 = compound: O=C(CCCCCCC(=O)Nc1ccccc1)NO [Vorinostat] + NC(=O)Nc1cc(-c2cccc(F)c2)sc1C(=O)N[C@H]1CCCNC1 [AZD7762] (partner 0.2 µM)
Procedure, shortened: as §1

Vorinostat + Pemetrexed = compound: O=C(CCCCCCC(=O)Nc1ccccc1)NO [Vorinostat] + Nc1nc2[nH]cc(CCc3ccc(C(=O)N[C@@H](CCC(=O)O)C(=O)O)cc3)c2c(=O)[nH]1 [Pemetrexed] (partner 0.2 µM)
Procedure, shortened: as §1

Vorinostat + Olaparib = compound: O=C(CCCCCCC(=O)Nc1ccccc1)NO [Vorinostat] + O=C(c1cc(Cc2n[nH]c(=O)c3ccccc23)ccc1F)N1CCN(C(=O)C2CC2)CC1 [Olaparib] (partner 8 µM)
Procedure, shortened: as §1

Row | Cell Line | relative viability (Vorinostat + Navitoclax; first compound 0.8 µM) | relative viability (Vorinostat + Navitoclax; first compound 2.53 µM) | relative viability (Vorinostat + Navitoclax; first compound 8 µM) | relative viability (Vorinostat + Tozasertib; first compound 0.253 µM) | relative viability (Vorinostat + Tozasertib; first compound 0.8 µM) | relative viability (Vorinostat + Tozasertib; first compound 2.53 µM) | relative viability (Vorinostat + Tozasertib; first compound 8 µM) | relative viability (Vorinostat + AZD7762; first compound 0.253 µM) | relative viability (Vorinostat + AZD7762; first compound 0.8 µM) | relative viability (Vorinostat + AZD7762; first compound 2.53 µM) | relative viability (Vorinostat + AZD7762; first compound 8 µM) | relative viability (Vorinostat + Pemetrexed; first compound 0.253 µM) | relative viability (Vorinostat + Pemetrexed; first compound 0.8 µM) | relative viability (Vorinostat + Pemetrexed; first compound 2.53 µM) | relative viability (Vorinostat + Pemetrexed; first compound 8 µM) | relative viability (Vorinostat + Olaparib; first compound 0.253 µM) | relative viability (Vorinostat + Olaparib; first compound 0.8 µM) | relative viability (Vorinostat + Olaparib; first compound 2.53 µM) | relative viability (Vorinostat + Olaparib; first compound 8 µM) | relative viability (Vorinostat + Navitoclax; first compound 0.253 µM)
1 | LCLC-97TM1 | 0.298 | 0.289 | 0.0998 | 0.19 | 0.158 | 0.159 | 0.149 | 0.129 | 0.256 | 0.205 | 0.0628 | 0.155 | 0.149 | 0.146 | 0.0924 | 0.455 | 0.429 | 0.19 | 0.0482 | 
2 | LK-2 | 0.585 | 0.169 | 0.0764 | 0.179 | 0.178 | 0.157 | 0.125 | 0.334 | 0.373 | 0.126 | 0.0415 | 0.278 | 0.262 | 0.138 | 0.036 | 0.705 | 0.62 | 0.309 | 0.0471 | 0.939
3 | LOU-NH91 | 0.568 | 0.313 | 0.233 | 0.615 | 0.481 | 0.36 | 0.295 | 0.757 | 0.739 | 0.548 | 0.414 | 0.362 | 0.324 | 0.387 | 0.351 | 0.959 | 0.832 | 0.587 | 0.404 | 0.791
4 | LU99A | 0.553 | 0.172 | 0.0974 | 0.299 | 0.259 | 0.208 | 0.213 | 0.279 | 0.198 | 0.15 | 0.0946 | 0.14 | 0.182 | 0.162 | 0.112 | 0.232 | 0.177 | 0.104 | 0.101 | 0.653
5 | LXF-289 | 0.963 | 0.279 | 0.0872 | 0.209 | 0.165 | 0.0836 | 0.0447 | 1.14 | 1.09 | 0.344 | 0.0727 | 0.905 | 0.794 | 0.554 | 0.0613 | 1.11 | 1.02 | 0.148 | 0.0576 | 1.04
6 | NCI-H23 | 0.89 | 0.25 | 0.142 | 0.275 | 0.269 | 0.105 | 0.124 | 0.174 | 0.13 | 0.0979 | 0.0915 | 0.842 | 0.713 | 0.32 | 0.181 | 0.317 | 0.239 | 0.0822 | 0.084 | 1.06
7 | NCI-H322M | 1.32 | 0.836 | 0.249 | 0.51 | 0.496 | 0.381 | 0.298 | 0.56 | 0.565 | 0.408 | 0.304 | 0.764 | 0.603 | 0.569 | 0.355 | 0.9 | 0.873 | 0.498 | 0.386 | 1.33
8 | NCI-H441 | 0.536 | 0.164 | 0.184 | 0.607 | 0.529 | 0.3 | 0.194 | 1.21 | 0.903 | 0.238 | 0.122 | 0.252 | 0.232 | 0.253 | 0.143 | 0.56 | 0.542 | 0.17 | 0.0865 | 0.464
9 | NCI-H460 | 0.913 | 0.0765 | 0.0108 | 0.593 | 0.0486 | 0.0314 | 0.0259 | 0.348 | 0.446 | 0.0499 | 0.0349 | 0.0729 | 0.064 | 0.0548 | 0.0231 | 0.396 | 0.175 | 0.064 | 0.0336 | 1.26
10 | NCI-H596 | 0.942 | 0.279 | 0.145 | 0.839 | 0.819 | 0.378 | 0.183 | 1.13 | 0.732 | 0.543 | 0.384 | 0.503 | 0.465 | 0.412 | 0.346 | 0.725 | 0.512 | 0.326 | 0.204 | 0.943
11 | NCI-H647 | 0.759 | 0.149 | 0.0271 | 0.279 | 0.183 | 0.078 | 0.0319 | 0.406 | 0.333 | 0.0641 | 0.0356 | 0.226 | 0.138 | 0.0722 | 0.0562 | 0.694 | 0.201 | 0.0618 | 0.0259 | 1.14
12 | NCI-H838 | 1.15 | 0.395 | 0.195 | 0.263 | 0.227 | 0.172 | 0.111 | 0.998 | 1 | 0.628 | 0.609 | 0.258 | 0.269 | 0.19 | 0.167 | 0.87 | 0.785 | 0.222 | 0.153 | 1.34
13 | NCI-H1355 | 0.876 | 0.506 | 0.166 | 0.529 | 0.315 | 0.188 | 0.129 | 0.892 | 0.595 | 0.394 | 0.15 | 1.09 | 1.01 | 0.536 | 0.246 | 0.797 | 0.565 | 0.211 | 0.128 | 1.05
14 | NCI-H1395 | 1.26 | 0.693 | 0.387 | 1.02 | 0.682 | 0.456 | 0.324 | 0.37 | 0.373 | 0.375 | 0.296 | 0.733 | 0.746 | 0.533 | 0.321 | 0.513 | 0.465 | 0.436 | 0.318 | 1.14
15 | NCI-H1437 | 0.908 | 0.166 | 0.118 | 0.371 | 0.338 | 0.18 | 0.104 | 1.23 | 0.9 | 0.426 | 0.197 | 0.308 | 0.3 | 0.187 | 0.151 | 0.625 | 0.466 | 0.199 | 0.16 | 1.11
